According to patent publication US12029739B2, “SHP2 inhibitor and use thereof” (KANAPH THERAPEUTICS INC., priority 2021, dated 2024):
Like-named read-outs stand apart in the source and are kept apart here.

Tests used:
[1] = tested on: phospho-ERK in MIA PaCa2 or H358 cells; assay: Phospho-ERK assay (AlphaLisa); assay type: cell-based; conditions: MIA PaCa2 or H358 cells, compound incubated 1.5 hours, read-out: IC50 (p-ERK)
SHP2 (full length) = molecular target: T1, SHP2 (full length) (Homo sapiens, UniProt Q06124); assay: Phosphatase assay (PTPase assay) with DiFMUP substrate; assay type: biochemical; conditions: SHP2 activated with SHP2 activating peptide; DiFMUP 80 μM, 2 hours; fluorescence; read-out: IC50 (PTPase aS say)
T1 construct: SHP2 (full length, diluted to 100 pM final concentration in reaction buffer, BPS bioscience, US); purchased BPS bioscience, US
T1 sequence (Q06124 1-593): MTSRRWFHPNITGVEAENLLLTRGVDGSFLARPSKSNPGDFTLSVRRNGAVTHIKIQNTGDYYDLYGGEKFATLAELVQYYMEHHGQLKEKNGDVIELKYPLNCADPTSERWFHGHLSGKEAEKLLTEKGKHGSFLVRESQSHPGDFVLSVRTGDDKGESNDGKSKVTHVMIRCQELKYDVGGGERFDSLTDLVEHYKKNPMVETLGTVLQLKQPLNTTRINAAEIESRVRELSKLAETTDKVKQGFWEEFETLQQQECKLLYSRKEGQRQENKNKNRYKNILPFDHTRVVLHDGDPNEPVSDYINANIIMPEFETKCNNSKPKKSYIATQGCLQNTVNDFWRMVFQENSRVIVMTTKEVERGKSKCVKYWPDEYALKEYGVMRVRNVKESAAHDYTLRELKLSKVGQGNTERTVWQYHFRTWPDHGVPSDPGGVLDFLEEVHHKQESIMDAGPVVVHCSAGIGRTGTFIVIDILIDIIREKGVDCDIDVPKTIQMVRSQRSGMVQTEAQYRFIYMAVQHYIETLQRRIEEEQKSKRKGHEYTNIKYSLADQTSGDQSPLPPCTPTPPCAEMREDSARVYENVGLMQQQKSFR

Compound | IC50 ([1]; 1.5 h) [nM] | IC50 (SHP2 (full length)) [nM] | IC50 [1] [nM]
C[C@@H]1OCC2(CCN(c3cnc(Sc4ccc5ncn(Cc6nc7ccccc7[nH]6)c(=O)c5c4Cl)cn3)CC2)[C@@H]1N [Example 37, 3-((1H-benzo[d]imidazol-2-yl)methyl)-6-((5-((3S,4S)-4-amino-3-methyl-2-oxa-8-azaspiro[4.5]decan-8-yl)pyrazin-2-yl)thio)-5-chloroquinazolin-4(3H)-one] | < 45 | < 3 | –
COCCn1cnc2ccc(Sc3ncc(N4CCC5(CC4)CO[C@@H](C)[C@H]5N)nc3N)c(Cl)c2c1=O [Example 143, 6-((3-amino-5-((3S,4S)-4-amino-3-methyl-2-oxa-8-azaspiro[4.5]decan 8-yl)pyrazin-2-yl)thio)-5-chloro-3-(2-methoxyethyl)quinazolin-4(3H)-one] | < 45 | < 3 | –
N[C@@H]1c2cccnc2CC12CCN(c1cnc(Sc3ccc4ncn(CCCF)c(=O)c4c3Cl)cn1)CC2 [Example 110] | < 45 | < 3 | –
C[C@@H]1OCC2(CCN(c3cnc(Sc4ccc5ncn(CC6CCCO6)c(=O)c5c4Cl)cn3)CC2)[C@@H]1N (stereo partly drawn) [Example 62, 6-((5-((3S,4S)-4-amino-3-methyl-2-oxa-8-azaspiro[4.5]decan-8-yl)pyrazin-2-yl)thio)-5-chloro-3-((tetrahydrofuran-2-yl)methyl)quinazolin-4(3H)-one] | < 45 | < 3 | –
COc1cccc(Cn2cnc3ccc(Sc4cnc(N5CCC6(CC5)CO[C@@H](C)[C@H]6N)cn4)c(Cl)c3c2=O)c1F [Example 70, 6-((5-((3S,4S)-4-amino-3-methyl-2-oxa-8-azaspiro[4.5]decan-8-yl)pyrazin-2-yl)thio)-5-chloro-3-(2-fluoro-3-methoxybenzyl)quinazolin-4(3H)-one] | < 45 | < 3 | –
CC(c1ccccc1)n1cnc2ccc(Sc3cnc(N4CCC5(CC4)CO[C@@H](C)[C@H]5N)cn3)c(Cl)c2c1=O (stereo partly drawn) [Example 32, 6-((5-((3S,4S)-4-amino-3-methyl-2-oxa-8-azaspiro[4.5]decan-8-yl)pyrazin-2-yl)thio)-5-chloro-3-(1-phenylethyl)quinazolin-4(3H)-one] | 45 to 1500 | < 3 | –
COCCn1cnc2ccc(Sc3cnc(N4CCC5(CC4)CO[C@@H](C)[C@H]5N)c(CO)n3)c(Cl)c2c1=O [Example 153, 6-[5-[(3S,4S)-4-amino-3-methyl-2-oxa-8-azaspiro[4.5]decan-8-yl]-6-(hydroxymethyl)pyrazin-2-yl]sulfanyl-5-chloro-3-(2-methoxyethyl)quinazolin-4-one] | < 45 | < 3 | –
C[C@@H]1OCC2(CCN(c3cnc(Sc4ccc5ncn(CN6CCOCC6)c(=O)c5c4Cl)cn3)CC2)[C@@H]1N [Example 78, 6-((5-((3S,4S)-4-amino-3-methyl-2-oxa-8-azaspiro[4.5]decan-8-yl)pyrazin-2-yl)thio)-5-chloro-3-(morpholinomethyl)quinazolin-4(3H)-one] | < 45 | < 3 | –
COC(C)Cn1cnc2ccc(Sc3ncc(N4CCC5(CC4)Cc4scnc4[C@H]5N)nc3N)c(Cl)c2c1=O (stereo partly drawn) [Example 177] | < 45 | < 3 | –
COCCn1cnc2ccc(Sc3cnc(N4CCC5(CC4)Cc4ncsc4[C@H]5N)c(C(N)=O)n3)c(Cl)c2c1=O [Example 171, (S)-3-(6-amino-4,6-dihydrospiro[cyclopenta[d]thiazole-5,4′-piperidin]-1′-yl)-6-((5-chloro-3-(2-methoxyethyl)-4-oxo-3,4-dihydroquinazolin-6-yl)thio)pyrazine-2-carboxamide] | < 45 | < 3 | –
Cn1c(N2CCC(C)(N)CC2)nc(N)c(Sc2ccc3ncn(-c4ccccc4)c(=O)c3c2Cl)c1=O [Example 30, 6-((4-amino-2-(4-amino-4-methylpiperidin-1-yl)-1-methyl-6-oxo-1,6-dihydropyrimidin-5-yl)thio)-5-chloro-3-phenylquinazolin-4(3H)-one] | > 1500 | > 100 | –
Cn1c(N2CCC(C)(N)CC2)nc(N)c(Sc2cccc(C(=O)O)c2Cl)c1=O [Example 27, 3-((4-amino-2-(4-amino-4-methylpiperidin-1-yl)-1-methyl-6-oxo-1,6-dihydropyrimidin-5-yl)thio)-2-chlorobenzoic acid] | > 1500 | > 100 | –
Cn1c(N2CCN[C@H](CN)C2)nc(N)c(Sc2cccc(Cl)c2Cl)c1=O [Example 197, (R)-6-amino-2-(3-(aminomethyl)piperazin-1-yl)-5-((2,3-dichlorophenyl)thio)-3-methylpyrimidin-4(3H)-one] | – | 3 to 100 | 45 to 1500
CC(C)(O)Cn1cnc2ccc(Sc3cnc(N4CCC5(CC4)Cc4ncsc4[C@H]5N)cn3)c(Cl)c2c1=O [Example 147, 6-[5-[(6S)-6-aminospiro[4,6-dihydrocyclopenta[d]thiazole-5,4′piperidin]1′-yl]pyrazin-2-yl]sulfanyl-5-chloro-3-(2-hydroxy-2-methyl-propyl)quinazolin-4-one] | < 45 | < 3 | –
C[C@@H]1OCC2(CCN(c3cnc(Sc4ccc5ncn(CC6(F)CCOCC6)c(=O)c5c4Cl)cn3)CC2)[C@@H]1N [Example 79, 6-((5-((3S,4S)-4-amino-3-methyl-2-oxa-8-azaspiro[4.5]decan-8-yl)pyrazin-2-yl)thio)-5-chloro-3-((4-fluorotetrahydro-2H-pyran-4-yl)methyl)quinazolin-4(3H)-one] | < 45 | < 3 | –
C[C@@H]1OCC2(CCN(c3cnc(Sc4ccc5ncn(CC(F)(F)F)c(=O)c5c4Cl)cn3)CC2)[C@@H]1N [Example 75, 6-((5-((3S,4S)-4-amino-3-methyl-2-oxa-8-azaspiro[4.5]decan-8-yl)pyrazin-2-yl)thio)-5-chloro-3-(2,2,2-trifluoroethyl)quinazolin-4(3H)-one] | 45 to 1500 | 3 to 100 | –
C[C@@H]1OCC2(CCN(c3cnc(Sc4ccc5ncn(Cc6ccnc(C#N)c6)c(=O)c5c4Cl)cn3)CC2)[C@@H]1N [Example 71, 4-((6-((5-((3S,4S)-4-amino-3-methyl-2-oxa-8-azaspiro[4.5]decan-8-yl)pyrazin-2-yl)thio)-5-chloro-4-oxoquinazolin-3(4H)-yl)methyl)picolinonitrile] | < 45 | < 3 | –
C[C@@H]1OCC2(CCN(c3cnc(Sc4ccc5ncn(Cc6cccc(C#N)c6)c(=O)c5c4Cl)cn3)CC2)[C@@H]1N [Example 31, 3-((6-((5-((3S,4S)-4-amino-3-methyl-2-oxa-8-azaspiro[4.5]decan-8-yl)pyrazin-2-yl)thio)-5-chloro-4-oxoquinazolin-3(4H)-yl)methyl)benzonitrile] | < 45 | < 3 | –
N[C@@H]1c2cccnc2CC12CCN(c1cnc(Sc3ccc4ncn(Cc5ccccc5)c(=O)c4c3Cl)cn1)CC2 [Example 102, (S)-6-((5-(5-amino-5,7-dihydrospiro[yclopenta[b]pyridine-6,4′-piperidin]-1′-yl)pyrazin-2-yl)thio)-3-benzyl-5-chloroquinazolin-4(3H)-one] | < 45 | < 3 | –
CC(C)(O)Cn1cnc2ccc(Sc3cnc(N4CCC5(CC4)Cc4scnc4[C@@H]5N)cn3)c(Cl)c2c1=O [Example 152, 6-[5-[(4R)-4-aminospiro[4,6-dihydrocyclopenta[d]thiazole-5,4′-piperidin]-1′-yl]pyrazin-2-yl]sulfanyl-5-chloro-3-(2-hydroxy-2-methyl-propyl)quinazolin-4-one] | 45 to 1500 | 3 to 100 | –
C[C@@H]1OCC2(CCN(c3cnc(Sc4ccc5ncn(Cc6ccnc(Cl)c6)c(=O)c5c4Cl)cn3)CC2)[C@@H]1N [Example 60, 6-((5-((3S,4S)-4-amino-3-methyl-2-oxa-8-azaspiro[4.5]decan-8-yl)pyrazin-2-yl)thio)-5-chloro-3-((2-chloropyridin-4-yl)methyl)quinazolin-4(3H)-one] | < 45 | < 3 | –
C[C@@H]1OCC2(CCN(c3cnc(Sc4ccc5ncn(Cc6nc7ccccc7o6)c(=O)c5c4Cl)cn3)CC2)[C@@H]1N [Example 47, 6-((5-((3S,4S)-4-amino-3-methyl-2-oxa-8-azaspiro[4.5]decan-8-yl)pyrazin-2-yl)thio)-3-(benzooxazol-2-ylmethyl)-5-chloroquinazolin-4(3H)-one] | < 45 | < 3 | –
C[C@@H]1OCC2(CCN(c3cnc(Sc4ccc5nc(Cc6cnccn6)[nH]c5c4Cl)cn3)CC2)[C@@H]1N [Example 136, (3S,4S)-8-(5-((7-chloro-2-(pyrazin-2-ylmethyl)-1H-benzo[d]imidazol-6-yl)thio)pyrazin-2-yl)-3-methyl-2-oxa-8-azaspiro[4.5]decan-4-amine] | < 45 | < 3 | –
C[C@@H]1OCC2(CCN(c3cnc(Sc4ccc5ncn(CC6CNC(=O)O6)c(=O)c5c4Cl)cn3)CC2)[C@@H]1N (stereo partly drawn) [Example 118] | < 45 | < 3 | –
